Data from patent US7439253B2, “Heterocyclic compounds, their preparation and their use as medicaments, in particular as antibacterials and beta-lactamase inhibitors” (Novexel, priority 2002, dated 2008).
Where a name gives a salt, the structure may show the parent alone. Read-outs that look alike come from different tables or passages of the source.

Columns and labels:
[1] = biological target: T1, β-lactamase P99 (Enterobacter cloacae, UniProt P05364); experiment: biochemical; type: biochemical
T1 construct: The β-lactamases are isolated from bacterial strains resistant to penicillins and to cephalosporins; endogenous in cells; host or cells: E. cloacae 293HT6 (soluble fraction of French-press lysate, 100 000 G supernatant)
Experimental: (§1) A. Preparation of the β-lactamases Tem˜1 and P99
(§2) The β-lactamases are isolated from bacterial strains resistant to penicillins and to cephalosporins (Tem1 and P99 are produced by E. coli 250HT21 and E. Cloacae 293HT6, respectively).
(§3) The bacteria are cultured in heart-brain broth at 37 g/l (DIFCO), at 37° C. They are harvested at the end of the exponential phase, cooled and centrifuged. The bacterial pellets are taken up in 50 mM sodium phosphate buffer pH 7.0 and again centrifuged. The bacteria are taken up in two volumes of this same buffer and lyzed by means of a French-Press kept at 4° C. After centrifugation for 1 h at 100 000 G, at 4° C., the supernatants containing the soluble fraction of the bacterial extracts are recovered and frozen at −80° C.
(§4) B. Determination of the β-lactamase Activity
(§5) The method uses, as substrate, Nitrocefin (OXOID), a chromogenic cephalosporin, whose product of hydrolysis by Beta-lactamases is red and absorbs at 485 nm. The β-lactamase activity is kinetically determined by measuring the variation in absorbance at 485 nm resulting from the hydrolysis of the substrate on a plate spectrophotometer (Spectra Max Plus from Molecular Devices). The experiments are performed at 37° C. The quantity of enzyme was normalized and the measurements are performed at the initial speed.
(§6) C. Determination of the β-lactamase Inhibiting Activity
(§7) Two measurements are carried out, without preincubation and with preincubation of the enzyme and of the inhibitor (5 min), in order to test the irreversibility of the reaction. The products are tested at 6 or 8 concentrations in duplicate. The reaction mixture contains 100 μM of Nitrocefin and 50 mM sodium phosphate buffer pH 7.0. D. Calculations of the IC50 Values
(§8) The rates of hydrolysis are measured with and without inhibitor. The concentration of inhibitor which inhibits by 50% the reaction of hydrolysis of Nitrocefin by the enzyme (IC50) is determined. The data processing is carried out with the aid of the GraFit software (Erathycus Software).

[2] = biological target: T2, β-lactamase TEM1 (Escherichia coli, UniProt P62593); experiment: β-lactamase inhibiting activity (Nitrocefin hydrolysis); type: biochemical, E. coli 250HT21
T2 construct: The β-lactamases are isolated from bacterial strains resistant to penicillins and to cephalosporins; endogenous in cells; host or cells: E. coli 250HT21 (soluble fraction of French-press lysate, 100 000 G supernatant)
Experimental: as §1, §2, §3, §4, §5, §6, §7, §8

[3] = 100 μM Nitrocefin, 50 mM sodium phosphate buffer pH 7.0, 37° C.
[4] = 100 μM Nitrocefin, 50 mM sodium phosphate buffer pH 7.0, 37° C., read-out: IC50 nM/TEM1

T1 sequence (P05364 21-381): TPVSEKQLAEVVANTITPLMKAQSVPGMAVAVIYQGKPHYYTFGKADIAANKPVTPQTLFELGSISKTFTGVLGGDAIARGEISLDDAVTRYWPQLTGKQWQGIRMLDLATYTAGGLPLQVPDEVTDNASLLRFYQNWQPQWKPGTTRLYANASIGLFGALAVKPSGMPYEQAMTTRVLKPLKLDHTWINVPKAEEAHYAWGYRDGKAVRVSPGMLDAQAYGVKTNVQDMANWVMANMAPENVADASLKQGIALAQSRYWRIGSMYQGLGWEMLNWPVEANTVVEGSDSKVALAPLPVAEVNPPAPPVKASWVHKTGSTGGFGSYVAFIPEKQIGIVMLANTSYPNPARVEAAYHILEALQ
T2 sequence (P62593 24-286 limits assumed): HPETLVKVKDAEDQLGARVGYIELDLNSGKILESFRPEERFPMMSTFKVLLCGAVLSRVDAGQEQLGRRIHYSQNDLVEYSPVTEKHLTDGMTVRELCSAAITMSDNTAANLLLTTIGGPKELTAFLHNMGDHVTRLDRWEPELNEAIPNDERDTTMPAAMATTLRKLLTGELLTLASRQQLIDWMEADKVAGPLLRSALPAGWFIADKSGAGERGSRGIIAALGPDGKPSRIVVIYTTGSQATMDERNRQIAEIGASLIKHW

Work on `CCc1ccccc1-c1cc2c(s1)[C@@H](C(N)=O)N1C[C@H]2N(OS(=O)(=O)O)C1=O` (relative stereo) [Example 26, Sodium Salt of Trans-2-(2-ethylphenyl)-4,5,6,8-tetrahydro-6-oxo-5-(sulfoxy)-4,7-methano-7H-thieno[2,3-e][1,3]diazepine-8-carboxamide] yielded an IC50 [1, 3] of 6 nM and an IC50 [2, 4] of 1 nM.

For `CCOC(=O)C1c2ccc(OC(=O)Nc3ccccc3)cc2C2CN1C(=O)N2OS(=O)(=O)O` (stereo not drawn) [Example 37, Sodium Salt of Ethyl Trans-1,2,3,5-tetrahydro-3-oxo-8-[[(phenylamino)carbonyl]oxy]-2-(sulfoxy)-1,4-methano-4H-2,4-benzodiazepine-5-carboxylate], the IC50 [1, 3] was 21 nM and the IC50 [2] was 41 nM.

For `CCOC(=O)[C@@H]1c2c(-c3ccc(F)cc3)csc2[C@H]2CN1C(=O)N2OS(=O)(=O)O` (relative stereo) [Example 44, Sodium Salt of ethyl trans-3-(4-fluorophenyl)-4,6,7,8-tetrahydro-6-oxo-7-(sulfoxy)-5,8-methano-5H-thieno[2,3-e][1,3]diazepine-4-carboxylate], the IC50 ([1]; pH 7) was 2 nM and the IC50 [2, 4] was 34 nM.

`COC(=O)C1c2nn(C(N)=O)cc2C2CN1C(=O)N2OS(=O)(=O)O` (stereo not drawn) [Example 11, Pyridinium Salt of Methyl Trans-2-(aminocarbonyl)-2,5,6,8-tetrahydro-6-oxo-5-(sulfoxy)-4H-4,7-methanopyrazolo[3,4-e][1,3]diazepine-8-carboxylate] showed an IC50 [1, 3] of 39 nM and an IC50 [2] of 11 nM.

`COC(=O)[C@@H]1c2nn(CCc3ccccc3)cc2[C@H]2CN1C(=O)N2OS(=O)(=O)O` (relative stereo) [Example 3, Triethylammonium Salt of Methyl trans-2,5,6,8-tetrahydro-6-oxo-2-(2-phenylethyl)-5-(sulfoxy)-4H-4,7-methanopyrazolo[3,4-e][1,3]diazepine-8-carboxylate] was tested, and the IC50 [1, 3] was 11 nM and the IC50 [2, 4] was 2 nM.

In the case of `COC(=O)[C@@H]1c2nn(Cc3ccccc3)cc2[C@H]2CN1C(=O)N2OS(=O)(=O)O` (relative stereo) [Example 1, triethylammonium salt of methyl trans-2,5,6,8-tetrahydro-6-oxo-2-(phenylmethyl)-5-(sulfoxy)-4H-4,7-methanopyrazolo[3,4-e][1,3]diazepine-8-carboxylate], the IC50 [1, 3] is reported as 5 nM and the IC50 [2, 4] is reported as 3 nM.

Compound `NC(=O)[C@@H]1c2c(cnn2-c2ccccc2)[C@H]2CN1C(=O)N2OS(=O)(=O)O` (relative stereo) [Example 47, Sodium Salt of trans-4,5,6,8-tetrahydro-6-oxo-1-phenyl-5-(sulfoxy)-1H-4,7-methanopyrazolo[3,4-e][1,3]diazepine-8-carboxamide] has an IC50 [1, 3] of 3 nM and an IC50 [2, 4] of 12 nM.

Work on `CCOC(=O)[C@H]1c2ccc(OS(=O)(=O)C(F)(F)F)cc2[C@@H]2CN1C(=O)N2OS(=O)(=O)O` (relative stereo) [Example 40, Sodium Salt of ethyl trans-1,2,3,5-tetrahydro-3-oxo-2-(sulfoxy)-8-[[(triluoromethyl)sulfonyl]oxy]-1,4-methano-4H-2,4-benzodiazepine-5-carboxylate] yielded an IC50 ([1]; pH 7) of 12 nM and an IC50 [2, 4] of 11 nM.

With `CCNC(=O)Oc1ccc2c(c1)[C@@H]1CN(C(=O)N1OS(=O)(=O)O)[C@H]2C(=O)OCC` (relative stereo) [Example 38, Sodium Salt of Ethyl Trans-8-[[(ethylamino)carbonyl]oxy]-1,2,3,5-tetrahydro-3-oxo-2-(sulfoxy)-1,4-methano-4H-2,4-benzodiazepine-5-carboxylate] the IC50 [1, 3] was 19 nM and the IC50 [2, 4] was 59 nM.

Compound `COc1ccc(Cn2ncc3c2CN2CC3N(OS(=O)(=O)O)C2=O)cc1` (centres unmarked) [Example 18, Sodium Salt of 1,4,5,8-tetrahydro-1-[(4-methoxyphenyl)methyl]-5-(sulfoxy)-6H-4,7-methanopyrazolo[3,4-e][1,3]diazepin-6-one] has an IC50 [1, 3] of 13 nM and an IC50 [2, 4] of 5 nM.

`COC(=O)C1c2c(cnn2CCc2ccccc2)C2CN1C(=O)N2OS(=O)(=O)O` (stereo not drawn) [Example 2, Triethylammonium Salt of Methyl trans-4,5,6,8-tetrahydro-6-oxo-1-(phenylethyl)-5-(sulfoxy)-1H-4,7-methanopyrazolo[3,4-e][1,3]diazepine-8-carboxylate] was tested, and the IC50 [1, 3] was 20 nM and the IC50 [2] was 16 nM.

Compound `COC(=O)[C@@H]1c2sc(C(N)=O)cc2[C@H]2CN1C(=O)N2OS(=O)(=O)O` (relative stereo) [Example 21, Sodium Salt of Methyl Trans-2-(aminocarbonyl)-4,5,6,8-tetrahydro-6-oxo-5-(sulfoxy)-4,7-methano-7H-thieno[2,3-e][1,3]diazepine-8-carboxylate] has an IC50 [1, 3] of 69 nM and an IC50 [2, 4] of 7 nM.

`NC(=O)[C@H]1c2ccc(OCCOS(=O)(=O)O)cc2[C@@H]2CN1C(=O)N2OS(=O)(=O)O` (relative stereo) [Example 41, Disodium Salt of trans-1,2,3,5-tetrahydro-3-oxo-2-(sulfoxy)-8-[2-(sulfoxy)ethoxy]-1,4-methano-4H-2,4-benzodiazepine-5-carboxamide] showed an IC50 [1, 3] of 29 nM and an IC50 [2, 4] of 9 nM.

Compound `O=C1N2Cc3c(cnn3-c3ccccc3)C(C2)N1OS(=O)(=O)O` (centres unmarked) [Example 46, Sodium Salt of 1,4,5,8-tetrahydro-1-phenyl-5-(sulfoxy)-6H-4,7-methanopyrazolo[3,4-e][1,3]diazepin-6-one] has an IC50 [1, 3] of 80 nM and an IC50 [2] of 5 nM.

`NC(=O)C1c2nn(C(=O)Nc3ccccc3)cc2C2CN1C(=O)N2OS(=O)(=O)O` (centres unmarked) [Example 7, Triethylammonium Salt of 5,6-dihydro-6-oxo-N-2-phenyl-5-(sulfoxy)-4H-4,7-methanopyrazolo[3,4-e][1,3]diazepine-2,8(8H)-dicarboxamide] was tested, and the IC50 [1, 3] was 14 nM and the IC50 [2, 4] was 1 nM.

With `CC1(C)OCC(COc2ccc3c(c2)C2CN(C(=O)N2OS(=O)(=O)O)C3C(N)=O)O1` (stereo not drawn) [Example 42, Sodium Salt of trans-8-[(2,2-dimethyl-1,3-dioxolan-4-yl)methoxy]-1,2,3,5-tetrahydro-3-oxo-2-(sulfoxy)-1,4-methano-4H-2,4-benzodiazepine-5-carboxamide] the IC50 [1, 3] was 44 nM and the IC50 [2] was 15 nM.

In the case of `COC(=O)[C@@H]1c2c(cnn2C(N)=O)[C@@H]2CN1C(=O)N2OS(=O)(=O)O` (relative stereo) [Example 10, Pyridinium Salt of Methyl Trans-1-(aminocarbonyl)-4,5,6,8-tetrahydro-6-oxo-5-(sulfoxy)-1H-4,7-methanopyrazolo[3,4-e][1,3]diazepine-8-carboxylate], the IC50 [1, 3] is reported as 18 nM and the IC50 [2] is reported as 12 nM.

Work on `CCOC(=O)[C@H]1c2cccc(OC(=O)Nc3ccccc3)c2[C@@H]2CN1C(=O)N2OS(=O)(=O)O` (relative stereo) [Example 28, Sodium Salt of Ethyl Trans-1,2,3,5-tetrahydro-3-oxo-9-[[(phenylamino)carbonyl]oxy]-2-(sulfoxy)-1,4-methano-4H-2,4-benzodiazepine-5-carboxylate] yielded an IC50 [1, 3] of 25 nM and an IC50 [2, 4] of 33 nM.

In the case of `CCOC(=O)Cn1ncc2c1C(C(=O)OC)N1CC2N(OS(=O)(=O)O)C1=O` (stereo not drawn) [Example 4, Triethylammonium Salt of Ethyl Trans-4,5,6,8-tetrahydro-8-(methoxycarbonyl)-6-oxo-5-(sulfoxy)-1H-4,7-methanopyrazolo[3,4-e][1,3]diazepine-1-acetate], the IC50 [1, 3] is reported as 7 nM and the IC50 [2] is reported as 34 nM.

With `COC(=O)C1c2sc(-c3ccc(F)cc3)cc2C2CN1C(=O)N2OS(=O)(=O)O` (stereo not drawn) [Example 19, Sodium Salt of Methyl Trans-2-(4-fluorophenyl)-4,5,6,8-tetrahydro-6-oxo-5-(sulfoxy)-4,7-methano-7H-thieno[2,3-e][1,3]diazepine-8-carboxylate] the IC50 [1, 3] was 16 nM and the IC50 [2] was 5 nM.

Compound `COC(=O)[C@@H]1c2nn(CC(=O)O)cc2[C@H]2CN1C(=O)N2OS(=O)(=O)O` (relative stereo) [Example 9, Di(triethylammonium) Salt of Trans-5,6-dihydro-8-(methoxycarbonyl)-6-oxo-5-sulfoxy-4H-4,7-methanopyrazolo[3,4-e][1,3]diazepine-2(8H)-acetic acid] has an IC50 [1, 3] of 50 nM and an IC50 [2, 4] of 60 nM.

`NC(=O)[C@@H]1c2sc(-c3ccccc3C(F)(F)F)cc2[C@H]2CN1C(=O)N2OS(=O)(=O)O` (relative stereo) [Example 25, Sodium Salt of Trans-4,5,6,8-tetrahydro-6-oxo-5-(sulfoxy)-2-[2-(trifluoromethyl)phenyl]-4,7-methano-7H-thieno[2,3-e][1,3]diazepine-8-carboxamide] showed an IC50 [1, 3] of 6 nM and an IC50 [2, 4] of 2 nM.
